Patent US11312705B2, “Heteroaryl[4,3-C]pyrimidine-5-amine derivative, preparation method therefor, and medical uses thereof” (Jiangsu Hengrui Medicine Co., Ltd., priority 2017, dated 2022)

Assays:
Format in all cases: cell-based
[1] = biological target: adenosine A1 receptor (A1R) (Homo sapiens (Human), UniProt P30542); assay: Inhibition of adenosine A1 receptor cAMP signaling pathway (HTRF cAMP, CHO-K1/A1R cells); settings: Table 2; for IC50: CHO-K1/A1R cells, forskolin 10 μM, CPA 10 nM, cAMP HTRF; for IC50 ratio (A1R/A2aR): selectivity A1R over A2aR
Chain of adenosine A1 receptor (A1R) (P30542 whole entry): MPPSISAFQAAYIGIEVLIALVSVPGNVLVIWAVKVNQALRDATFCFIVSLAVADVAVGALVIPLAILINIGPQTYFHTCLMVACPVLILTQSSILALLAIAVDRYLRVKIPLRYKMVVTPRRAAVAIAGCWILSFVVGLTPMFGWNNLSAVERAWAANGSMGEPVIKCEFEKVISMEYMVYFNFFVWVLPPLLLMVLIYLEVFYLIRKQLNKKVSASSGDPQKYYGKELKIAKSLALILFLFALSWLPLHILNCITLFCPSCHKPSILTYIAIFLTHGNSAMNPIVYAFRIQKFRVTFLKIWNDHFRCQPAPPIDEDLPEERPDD
Description: (§1) Test Example 1. Determination of the inhibition activity of the compounds of the present invention on the adenosine A2a receptor (A2aR) cAMP signaling pathway, the adenosine A2b receptor (A2bR) cAMP signaling pathway, the adenosine A1 receptor (A1R) cAMP signaling pathway and the adenosine A3 receptor (A3R) cAMP signaling pathway.
(§2) The inhibition activity of the compounds of the present invention on the adenosine A2a receptor cAMP signaling pathway, the adenosine A2b receptor cAMP signaling pathway, the adenosine A1 receptor cAMP signaling pathway and the adenosine A3 receptor cAMP signaling pathway was determined by the following method. The experimental method is briefly described as follows:
2.2 Adenosine A1 receptor
(§3) CHO-K1/A1R cells were cultured in DMEM/F12 medium containing 10% fetal bovine serum and 1 mg/ml G418. The cells were digested with the cell separation buffer during the experiment. The cells were then resuspended in the balanced salt buffer containing 20 mM HEPES and 0.1% bovine serum albumin and counted, and the cell density was adjusted to 5×10^5 cells/ml. In the 384-well plate, each well was added with 12.5 μl of cell suspension, and 6.25 μl of test compound (4× concentration) formulated with the balanced salt buffer containing 20 mM HEPES, 0.1% bovine serum albumin, 54 μM rolipram and 2.7 U/ml adenosine deaminase, and the plate was incubated at room temperature for 30 minutes. Each well was then added with 6.25 μl of forskolin and N6-cyclopentyladenosine (4× concentration) formulated with the balanced salt buffer containing 20 mM HEPES, 0.1% bovine serum albumin, 54 μM rolipram and 2.7 U/ml adenosine deaminase, and the plate was incubated at room temperature for 30 minutes. The final concentrations of the compounds were: 100000, 10000, 1000, 100, 10, 1, 0.1 and 0 nM. The final concentration of forskolin was 10 μM. The final concentration of CPA was 10 nM. Intracellular cAMP concentration was detected with the cAMP dynamic 2 kit. cAMP-d2 and Anti-cAMP-Eu-Cryptate were diluted respectively with the cAMP lysis buffer at a ratio of 1:4. Each well was added with 12.5 μl of diluted cAMP-d2, followed by addition of 12.5 μl of diluted Anti-cAMP-Eu-Cryptate, and the plate was incubated at room temperature in the dark for 1 hour. The HTRF signal values were read by the PHERAstar multi-function microplate reader.

[2] = biological target: adenosine A2b receptor (A2bR) (Homo sapiens (Human), UniProt P29275); assay: Inhibition of adenosine A2b receptor cAMP signaling pathway (HTRF cAMP, CHO-K1/A2bR cells); settings: Table 3; for IC50: CHO-K1/A2bR cells, ethyl carbazole 1 μM, cAMP HTRF
Chain of adenosine A2b receptor (A2bR) (P29275 whole entry): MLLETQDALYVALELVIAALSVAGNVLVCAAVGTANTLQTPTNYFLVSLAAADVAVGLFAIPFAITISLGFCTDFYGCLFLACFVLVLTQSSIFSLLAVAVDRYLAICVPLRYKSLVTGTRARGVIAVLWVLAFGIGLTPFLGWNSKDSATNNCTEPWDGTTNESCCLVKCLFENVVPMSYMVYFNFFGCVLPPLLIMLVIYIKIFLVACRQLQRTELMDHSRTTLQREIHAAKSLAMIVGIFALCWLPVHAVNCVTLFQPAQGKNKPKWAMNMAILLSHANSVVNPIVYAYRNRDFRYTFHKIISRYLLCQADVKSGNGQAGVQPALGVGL
Outline: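 CHO-K1 cells expressing human A2bR were preincubated with compound (0-100000 nM final) for 30 min at room temperature in HEPES/BSA buffer with rolipram and adenosine deaminase. They were then stimulated with 1 μM […] for 30 min. Intracellular cAMP was measured by HTRF after 1 h detection.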

[3] = biological target: adenosine A3 receptor (A3R) (Homo sapiens (Human), UniProt P0DMS8); assay: Inhibition of adenosine A3 receptor cAMP signaling pathway (HTRF cAMP, CHO-K1/A3R cells); settings: Table 2; for IC50: CHO-K1/A3R cells, forskolin 10 μM, 2Cl-IB-MECA 5 nM, cAMP HTRF
Chain of adenosine A3 receptor (A3R) (P0DMS8 whole entry): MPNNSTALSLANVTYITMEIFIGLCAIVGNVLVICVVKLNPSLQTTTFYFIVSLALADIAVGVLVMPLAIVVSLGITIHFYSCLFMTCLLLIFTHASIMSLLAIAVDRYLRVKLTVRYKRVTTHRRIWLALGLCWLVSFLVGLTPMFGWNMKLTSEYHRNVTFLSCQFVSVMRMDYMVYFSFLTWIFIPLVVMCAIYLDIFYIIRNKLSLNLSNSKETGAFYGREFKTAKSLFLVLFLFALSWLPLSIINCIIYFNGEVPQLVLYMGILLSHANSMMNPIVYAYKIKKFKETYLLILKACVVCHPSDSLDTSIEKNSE
Description: as §1, §2
2.3 Adenosine A3 receptor
as §3, with “CHO-K1/A3R cells were” for “CHO-K1/A1R cells were”, “serum and 10 μg/ml puromycin. The cells” for “serum and 1 mg/ml G418. The cells”, “cells were resuspended in” for “cells were then resuspended in”, “forskolin and 2Cl-IB-MECA (4× concentration)” for “forskolin and N6-cyclopentyladenosine (4× concentration)”, “concentration of 2Cl-IB-MECA was 5” for “concentration of CPA was 10”, “2Cl-IB-MECA was 5 nM. Intracellular” for “CPA was 10 nM. Intracellular”

Row | IC50 [1] | IC50 ratio (A1R/A2aR) [1] | IC50 [2] | IC50 ratio (A3R/A2aR) [3] | IC50 [3] | IC50 ratio (A2bR/A2aR) ([2]; selectivity A2bR over A2aR) | SMILES
1 | 409 nM | 103 | 793 nM | >2.5 × 10^3 | > 10000 nM | – | Cc1cc(-c2c(-c3ccc(F)cc3F)nc(N)n3cnnc23)cc(C(F)(F)F)n1 [Example 18, 7-(2,4-Difluorophenyl)-8-(2-methyl-6-(trifluoromethyl)pyridin-4-yl)-[1,2,4]triazolo[4,3-c]pyrimidin-5-amine]
2 | 519 nM | 223 | 522 nM | >4.3 × 10^3 | > 10000 nM | 224 | Cc1cc(-c2c(-c3ccc(F)cc3F)nc(N)n3cnnc23)cc(C(F)F)n1 [Example 20, 8-(2-(Difluoromethyl)-6-methylpyridin-4-yl)-7-(2,4-difluorophenyl)-[1,2,4]triazolo[4,3-c]pyrimidin-5-amine]
